The record followed here is patent publication US9718790B2, “Triazine derivative and pharmaceutical composition having an analgesic activity comprising the same” (SHIONOGI & CO., LTD., priority 2010, dated 2017).

By IC50 is commonly meant the concentration that inhibits the measured activity by half.

Sequence of human P2X3 receptor (P56373 whole entry): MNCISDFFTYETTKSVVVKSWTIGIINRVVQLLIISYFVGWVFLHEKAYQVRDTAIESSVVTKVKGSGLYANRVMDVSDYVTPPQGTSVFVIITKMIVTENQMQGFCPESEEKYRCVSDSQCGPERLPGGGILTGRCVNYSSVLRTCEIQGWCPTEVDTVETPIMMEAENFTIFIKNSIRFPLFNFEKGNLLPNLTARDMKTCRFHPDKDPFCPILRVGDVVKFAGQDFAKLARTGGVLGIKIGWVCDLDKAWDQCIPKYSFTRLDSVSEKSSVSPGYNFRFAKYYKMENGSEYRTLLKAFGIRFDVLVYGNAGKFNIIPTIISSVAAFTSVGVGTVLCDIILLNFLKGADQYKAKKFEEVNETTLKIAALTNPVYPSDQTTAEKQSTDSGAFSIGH

The first experiment concerns the target human P2X3 receptor (Homo sapiens (Human), UniProt P56373). Kind of experiment: Evaluation of human P2X3 receptor inhibitory activity (Fluo-3 calcium fluorescence, FDSS 3000, ATP stimulation).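 Also: stimulus was 50 nM ATP with fluorescence followed for 3 min, and the response per well was peak post-ATP fluorescence divided by the reading at measurement start.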 Type of experiment: cell-based. As to conditions: C6BU-1 cells stably expressing human P2X3 receptor.
Consider `CCOC(=O)CCn1c(=O)[nH]/c(=N\c2ccc(CC(C)C)c(C)c2)n(Cc2ccc(Cl)cc2)c1=O` [Compound I-1251], for which the concentration for half-maximal inhibition (IC50) was 17 nM. Same read-out and setting: the figure for `O=c1[nH]/c(=N\c2ccc3nc(C(F)(F)F)sc3c2)n(Cc2ccc(Cl)cc2)c(=O)n1CCO` [Compound I-2167] is 54 nM; for `Cc1cc2cc(/N=c3\[nH]c(=O)n(CC4COC(C)(C)OC4)c(=O)n3Cc3ccc(Cl)cc3)ccc2o1` [Compound I-2069] it is 7 nM; for `COC(=O)[C@@H](C)Cn1c(=O)[nH]/c(=N\c2ccc(C(=O)C3CC3)cc2)n(Cc2ccc(C)cc2)c1=O` [Compound I-1302] it is 169 nM. Same read-out and setting: the figure for `CCOC(=O)CC(C)(C)n1c(=O)[nH]/c(=N\c2ccc(OC(C)C)c(C)c2)n(Cc2ccc(Cl)cc2)c1=O` [Compound I-0805] is 29 nM. On to `CCn1c(=O)[nH]/c(=N\c2ccc(Oc3cncc(C(=O)O)c3)cc2)n(Cc2ccc(Cl)cn2)c1=O` [Compound I-2164], for which the IC50 was 125 nM. In the case of `Cc1ccc(Cn2c(=O)n([C@@H](C)[C@@H](C)C(=O)O)c(=O)[nH]/c2=N\c2ccc(OC3CCC3)cc2)cc1` [Compound I-1392], the IC50 was 18 nM. For the compound `CC(C)Oc1ccc(/N=c2\[nH]c(OCC(=O)O)nc(=O)n2Cc2ccc(Cl)cc2)cc1F` [Compound I-0581], the IC50 was found to be 145 nM.

In the case of `Cc1ccc(Cn2c(=O)n([C@H](C)[C@H](C)C(=O)O)c(=O)[nH]/c2=N\c2ccc3nc(C)sc3c2)cc1` [Compound I-1468], the half-maximal inhibitory concentration (IC50) is 10 nM. For `Cc1cc(/N=c2\[nH]c(=O)n(C[C@H](C)C(=O)O)c(=O)n2Cc2ccccc2)ccc1OC(C)C` [Compound I-0795], the half-inhibitory concentration (IC50) was found to be 724 nM. As to `Cc1cc(/N=c2\[nH]c(=O)n(C[C@H](C)C(=O)NCCO)c(=O)n2Cc2ccc(Cl)cc2)ccc1OC(C)C` [Compound I-0723], the IC50 worked out at 24 nM. In the case of `Cc1cc2cc(/N=c3\[nH]c(=O)n(CCCO)c(=O)n3Cc3ccc(Cl)cc3)ccc2o1` [Compound I-2027], the half-inhibitory concentration (IC50) is 17 nM.

On to `CC(C)Oc1ccc(/N=c2\[nH]c(=O)n([C@H](C)[C@H](C)C(=O)O)c(=O)n2Cc2ccc(Cl)cc2)cc1F` [Compound I-1343], for which the half-maximal inhibitory concentration (IC50) was 35 nM. On to `CCCc1ccc(/N=c2\[nH]c(=O)n(CCC(=O)OCC)c(=O)n2Cc2ccc(C)cc2)cc1C` [Compound I-1215], for which the 50% inhibitory concentration (IC50) amounted to 27 nM.

Consider `CC(C)Oc1ccc(/N=c2\[nH]c(=O)n(CCCS(=O)(=O)O)c(=O)n2Cc2ccc(Cl)cc2)cc1F` [Compound I-0645], for which the half-inhibitory concentration (IC50) is 102 nM.

For `COc1ccc(/N=c2\[nH]c(=O)n(C[C@H](C)C(=O)O)c(=O)n2Cc2ccc(Cl)cc2)cc1Cl` [Compound I-0724], the IC50 was determined as 250 nM.

For the compound `CCOC(=O)c1cc(Cn2c(=O)[nH]/c(=N\c3ccc(OC(C)C)c(C)c3)n(Cc3ccc(Cl)cc3)c2=O)on1` [Compound I-0784], the half-maximal inhibitory concentration (IC50) is 22 nM.

The same experiment, now with this note: C6BU-1 cells stably expressing human P2X3 receptor, Fluo-3 fluorescence, FDSS 3000.
For `COC(=O)CC1(Cn2c(=O)[nH]/c(=N\c3ccc(OC(C)C)c(Cl)c3)n(Cc3ccc(C)cc3)c2=O)CC1` [Compound I-0979], the 50% inhibitory concentration (IC50) turned out to be 6 nM. Same read-out and setting: in the case of `Cc1nc2ccc(/N=c3\[nH]c(=O)n(CC(N)=O)c(=O)n3Cc3ccc(Cl)cc3)cc2s1` [Compound I-1659] it was 6 nM. In the case of `C=Cc1ccc(Cn2c(=O)n(C[C@H](C)C(=O)O)c(=O)[nH]/c2=N\c2ccc(OC(C)C)c(C)c2)cc1` [Compound I-0897, (S)-1-(4-vinylbenzyl)-6-(3-mehyl-4-isopropoxyphenylimino)-3-(2-hydroxycarbonylpropyl)-1,3,5-triazinane-2,4-dion], the IC50 worked out at 25 nM.

As for `COC(=O)[C@@H](C)Cn1c(=O)nc(Cc2ccc(OC)c(F)c2)n(Cc2ccc(Cl)cc2)c1=O` [Compound I-1869], the IC50 is 328 nM. Consider `Cc1cc(/N=c2\[nH]c(=O)n(CC3CN(C(=O)OC(C)(C)C)C3)c(=O)n2Cc2ccc(Cl)cc2)ccc1OC(C)C` [Compound I-1640], for which the 50% inhibitory concentration (IC50) stood at 13 nM.

With `CCc1ccc(Cn2c(=O)n(C[C@H](C)C(=O)O)c(=O)[nH]/c2=N\c2ccc(OC(C)C)c(C)c2)cc1` [Compound I-0898, (S)-1-(4-ethylbenzyl)-6-(3-mehyl-4-isopropoxyphenylimino)-3-(2-hydroxycarbonylpropyl)-1,3,5-triazinane-2,4-dion], the 50% inhibitory concentration (IC50) amounted to 20 nM. On the same count and under the same terms, the figure for `CCOC(=O)CCCn1c(=O)[nH]/c(=N\c2ccc3oc(CC)c(C)c3c2)n(Cc2ccc(C)cc2)c1=O` [Compound I-1627] is 9 nM. For the compound `Cc1ccc(Cn2c(=O)n(CCC(=O)O)c(=O)[nH]/c2=N\c2cn(C)nc2C(=O)NC(C)C)cc1` [Compound I-1839], the half-maximal inhibitory concentration (IC50) came to 107 nM.

Take `C[C@@H](C(=O)O)[C@H](C)n1c(=O)[nH]/c(=N\c2ccc3c(c2)CCN3S(C)(=O)=O)n(Cc2ccc(Cl)cc2)c1=O` [Compound I-1774]: the IC50 was found to be 255 nM.

Regarding `CCc1cc(/N=c2\[nH]c(=O)n(C[C@H](C)C(=O)OC)c(=O)n2Cc2ccc(C)cc2)ccc1OC(C)C` [Compound I-0908, (S)-1-(4-methylbenzyl)-6-(3-ethyl-4-isopropoxyphenylimino)-3-(2-methoxycarbonylpropyl)-1,3,5-triazinane-2,4-dion], the IC50 came to 13 nM. For `COC(=O)[C@H](C)Cn1c(=O)[nH]/c(=N\c2ccc(OC(C)C)cc2)n(Cc2ccc(C)cc2)c1=O` [Compound I-1104], the IC50 worked out at 11 nM.

In the case of `CC(C)N1C(=O)Cc2cc(/N=c3\[nH]c(=O)n([C@@H](C)[C@@H](C)C(=O)O)c(=O)n3Cc3ccc(Cl)cc3)ccc21` [Compound I-1779], the half-maximal inhibitory concentration (IC50) came to 203 nM.

Turning to `COC(=O)[C@@H](C)Cn1c(=O)[nH]/c(=N\c2ccc(OC3CCOCC3)nc2)n(Cc2ccc(C)cc2)c1=O` [Compound I-1118], the 50% inhibitory concentration (IC50) was determined as 387 nM. As for `C[C@@H](C(=O)O)[C@H](C)n1c(=O)[nH]/c(=N\c2ccc3c(c2)nc(-c2ccccc2)n3C)n(Cc2ccc(Cl)cc2)c1=O` [Compound I-1812], the half-maximal inhibitory concentration (IC50) was 630 nM. Turning to `CCOc1ccc(/N=c2\[nH]c(=O)n(CC3COC(C)(C)OC3)c(=O)n2Cc2ccc(Cl)cc2)cc1Cl` [Compound I-1886], the IC50 came to 3 nM.

Take `CCC[C@@H](C)Oc1ccc(/N=c2\[nH]c(=O)n(CCC(=O)OCC)c(=O)n2Cc2ccc(C)cc2)cc1` [Compound I-1053]: the half-inhibitory concentration (IC50) is 79 nM.

Regarding `CCCCCOc1ccc(/N=c2\[nH]c(=O)n(C[C@H](C)C(=O)O)c(=O)n2Cc2ccc(C)cc2)cc1` [Compound I-1065], the half-maximal inhibitory concentration (IC50) stood at 85 nM.

Consider `C#Cc1ccc(Cn2c(=O)n(C[C@H](C)C(=O)OC)c(=O)[nH]/c2=N\c2ccc(OC(C)C)c(C)c2)cc1` [Compound I-0945], for which the IC50 is 173 nM.

In the case of `CCc1oc2ccc(/N=c3\[nH]c(=O)n(CCO)c(=O)n3Cc3ccc(Cl)cc3)cc2c1C` [Compound I-1633], the half-maximal inhibitory concentration (IC50) was determined as 16 nM. For `NC(=O)Cn1c(=O)[nH]/c(=N\c2ccc(Oc3ccc(O)nc3)cc2)n(Cc2ccc(Cl)cc2)c1=O` [Compound I-1900], the IC50 came out at 16 nM.

Still in this experiment, the particulars now being: human P2X3 receptor, Test Example 1.
For the compound `Cc1cnc(Oc2ccc(/N=c3\[nH]c(=O)n(C[C@H](O)CO)c(=O)n3Cc3ccc(Cl)cc3)cc2)s1` [Compound I-2513], the IC50 worked out at 6 nM.

On to `CCc1oc2ccc(/N=c3\[nH]c(=O)n(CC4(C(=O)O)CC4)c(=O)n3Cc3ccc(Cl)cc3)cc2c1C` [Compound I-1551], for which the IC50 was determined as 9 nM. Regarding `Cc1ccc(Cn2c(=O)n(C)c(=O)[nH]/c2=N\c2ccc(Oc3cnc(C(=O)O)cn3)cc2)cc1` [Compound I-2385], the IC50 amounted to 13 nM. The same measure, in the same setting: the figure for `CNC(=O)c1cc(Oc2ccc(/N=c3\[nH]c(=O)n(C)c(=O)n3Cc3ccc(Cl)cc3)cc2F)ccn1` [Compound I-2433] is 5 nM; for `NC(=O)Cn1c(=O)[nH]/c(=N\c2ccc(Oc3nccs3)cc2)n(Cc2ccc(Cl)cc2)c1=O` [Compound I-2644] it is 17 nM; for `CCn1c(=O)[nH]/c(=N\c2ccc(Oc3ccnc(NCCO)c3)cc2)n(Cc2ccc(Cl)cc2)c1=O` [Compound I-2588] it is 11 nM. For the compound `COc1cc(/N=c2\[nH]c(=O)n(C)c(=O)n2Cc2ccc(Cl)cc2)ccc1Oc1cccc(C#N)n1` [Compound I-2390], the IC50 was found to be 7 nM. For the compound `Cc1ccc(Cn2c(=O)n(C[C@H](C)C(=O)O)c(=O)[nH]/c2=N\c2ccc(C(C)C)c(Cl)c2)cc1` [Compound I-1494], the half-maximal inhibitory concentration (IC50) worked out at 571 nM. As for `Cc1cc(Oc2ccc(/N=c3\[nH]c(=O)n(CC(CO)CO)c(=O)n3Cc3ccc(Cl)cc3)cc2)no1` [Compound I-2353], the IC50 is 8 nM. Consider `CCn1c(=O)[nH]/c(=N\c2ccc(Oc3ccc(F)c(C(N)=O)c3)cc2)n(Cc2ccc(Cl)cc2)c1=O` [Compound I-2235], for which the concentration for half-maximal inhibition (IC50) came out at 4 nM. For `C[C@H](CO)n1c(=O)[nH]/c(=N\c2ccc(Oc3ccon3)cc2)n(Cc2ccc(Cl)cc2)c1=O` [Compound I-2488], the half-maximal inhibitory concentration (IC50) was 37 nM. In the case of `Cc1ccc(Cn2c(=O)n(C[C@H](C)C(=O)O)c(=O)[nH]/c2=N\c2ccc(OCC(C)C)c(C)c2)cc1` [Compound I-0836], the half-maximal inhibitory concentration (IC50) was determined as 95 nM.

As to `CC(CO)(CO)Cn1c(=O)[nH]/c(=N\c2ccc(Oc3ccon3)cc2)n(Cc2ccc(F)cc2)c1=O` [Compound I-2399], the IC50 is 20 nM.

As to `CCn1c(=O)[nH]/c(=N\c2ccc(Oc3cccc(C(=O)O)c3)cc2)n(C[C@H]2CC[C@H](C)CC2)c1=O` [Compound I-2354], the IC50 stood at 3 nM. Same read-out and setting: in the case of `Cc1nsc(Oc2ccc(/N=c3\[nH]c(=O)n(CCCO)c(=O)n3Cc3ccc(F)cc3)cc2)n1` [Compound I-2606] it was 14 nM. Still for that read-out and setting: the figure for `O=c1[nH]/c(=N\c2ccc(Oc3ccsn3)cc2)n(Cc2ccc(Cl)cc2)c(=O)n1CC(O)CO` (stereo not drawn) [Compound I-2514] is 11 nM. As for `CC[C@@H](Cn1c(=O)[nH]/c(=N\c2ccc(OC(C)C)c(C)c2)n(Cc2ccc(C)cc2)c1=O)C(=O)O` [Compound I-0886], the half-inhibitory concentration (IC50) amounted to 76 nM. As to `CCn1c(=O)[nH]/c(=N\[C@H]2CC[C@H](Oc3ccnc(C(=O)O)c3)CC2)n(Cc2ccc(Cl)cc2)c1=O` [Compound I-2297], the 50% inhibitory concentration (IC50) is 65 nM. Same read-out and setting: the figure for `NC(=O)Cn1c(=O)[nH]/c(=N\c2ccc(Oc3cccnn3)cc2)n(Cc2ccc(Cl)cc2)c1=O` [Compound I-2689] is 20 nM. Turning to `O=c1[nH]/c(=N\c2ccc(Oc3ccn[nH]3)cc2)n(Cc2ccc(Cl)cc2)c(=O)n1CCCO` [Compound I-2452], the IC50 amounted to 36 nM.
